# Test results from paper PMC10810197, “A KDPG sensor RccR governs Pseudomonas aeruginosa carbon metabolism and aminoglycoside antibiotic tolerance” (Nucleic Acids Research, 2023).
# How the values were obtained:
# [1] = target: RccR (PA5438) (Pseudomonas aeruginosa, UniProt Q9HTC8, S188A); assay: biochemical
# [2] = target: RccR (PA5438) (Pseudomonas aeruginosa, UniProt Q9HTC8, S183A); assay: biochemical
# [3] = target: T1, RccR (PA5438) (Pseudomonas aeruginosa, UniProt Q9HTC8); assay: isothermal titration calorimetry; type: binding
# T1 construct: tetramer in crystal
# T1 sequence (Q9HTC8 entry or part of it): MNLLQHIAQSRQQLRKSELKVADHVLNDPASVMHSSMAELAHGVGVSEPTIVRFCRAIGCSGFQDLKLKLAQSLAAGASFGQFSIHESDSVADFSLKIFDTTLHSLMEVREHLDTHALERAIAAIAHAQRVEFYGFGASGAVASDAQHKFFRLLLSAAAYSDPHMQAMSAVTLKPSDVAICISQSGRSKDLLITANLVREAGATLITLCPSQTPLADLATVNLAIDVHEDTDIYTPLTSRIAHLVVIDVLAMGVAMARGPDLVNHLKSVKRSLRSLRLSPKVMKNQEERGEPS
# [4] = target: T1, RccR (PA5438); assay: X-ray crystal structure of the complex, […] Å; type: binding; settings: space group I222, four monomers each with KDPG; PDB code not given
# [5] = target: RccR (PA5438) (Pseudomonas aeruginosa, UniProt Q9HTC8, S185A); assay: biochemical
# RccR (PA5438) (Pseudomonas aeruginosa, UniProt Q9HTC8, S185A), sequence (Q9HTC8 whole entry S185A): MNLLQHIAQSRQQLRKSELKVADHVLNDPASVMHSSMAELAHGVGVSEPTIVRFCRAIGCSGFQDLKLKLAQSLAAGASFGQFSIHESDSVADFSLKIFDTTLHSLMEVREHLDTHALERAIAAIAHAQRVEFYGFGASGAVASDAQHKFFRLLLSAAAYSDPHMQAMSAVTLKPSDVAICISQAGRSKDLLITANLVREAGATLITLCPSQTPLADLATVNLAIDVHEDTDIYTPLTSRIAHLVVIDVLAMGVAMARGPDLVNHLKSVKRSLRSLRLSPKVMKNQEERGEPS
# RccR (PA5438) (Pseudomonas aeruginosa, UniProt Q9HTC8, S183A), sequence (Q9HTC8 whole entry S183A): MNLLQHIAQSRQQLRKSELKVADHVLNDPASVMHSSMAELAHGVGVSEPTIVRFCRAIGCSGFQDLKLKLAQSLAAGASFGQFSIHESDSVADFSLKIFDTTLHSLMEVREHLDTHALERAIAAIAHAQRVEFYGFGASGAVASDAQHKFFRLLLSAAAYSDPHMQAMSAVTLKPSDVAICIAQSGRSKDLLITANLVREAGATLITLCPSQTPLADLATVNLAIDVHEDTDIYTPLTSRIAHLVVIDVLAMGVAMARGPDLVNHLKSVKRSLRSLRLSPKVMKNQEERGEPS
# RccR (PA5438) (Pseudomonas aeruginosa, UniProt Q9HTC8, S188A), sequence (Q9HTC8 whole entry S188A): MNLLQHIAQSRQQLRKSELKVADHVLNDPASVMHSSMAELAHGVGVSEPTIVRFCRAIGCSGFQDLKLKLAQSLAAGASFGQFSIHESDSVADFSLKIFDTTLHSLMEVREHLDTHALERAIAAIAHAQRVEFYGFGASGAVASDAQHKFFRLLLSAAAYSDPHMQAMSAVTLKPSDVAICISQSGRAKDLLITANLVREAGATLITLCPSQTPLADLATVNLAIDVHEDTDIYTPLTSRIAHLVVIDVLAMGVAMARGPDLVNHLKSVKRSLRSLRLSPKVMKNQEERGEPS
structure (smiles),measurement,setting,value
O=C(O)C(=O)C[C@H](O)[C@H](O)COP(=O)(O)O [KDPG],Kd,[1],15.7 µM
same,Kd,[2],28.7 µM
same,Kd,[3],3.31 µM
same,"X-ray crystal structure of the complex, 1.9 Å",[4],Each monomer in this complex structure harbors a well-defined signal molecule KDPG
same,Kd,[5],21 µM
